Laboratory results: US20240423999A1 (priority 2021, published 2024)

Key:
[1] = in vivo; cited from earlier work
mice = conditions: mouse, in vivo, po

Row | Compound | value indicated for oral toxicity [1] [mg/kg body weight] | behavioral recovery (mice) | survival rate (mice)
1 | O=S([O-])S(=O)[O-].[Na+].[Na+] [sodium dithionite] | 2500 |  | 
2 | [C-]#[O+] [CO, carbon monoxide] |  | behavior recovered from being incapable of action | high
